Assay results from patent publication US10124059B2, “Dimeric scaffold peptides comprising HIV-1 GP120 and GP41 epitopes” (priority 2011, dated 2018).
Ends that are not written are not given here.

Assays:
[1] = test system: New Zealand White female rabbits; assay: Rabbit immunizations with BI400-B vaccine, direct ELISA of sera; format: in vivo
Description: New Zealand White female rabbits (n=3) was immunized intradermally at weeks 0, 2 & 6 with 1 ml of BI400-B vaccine consisting of 500 μg BI400-B in 50% V/V Freund's adjuvant (i.e. Complete Freund's adjuvant used for priming, followed by boostings with Incomplete Freund's adjuvant). Individual blood serum was isolated for ELISA.
50-100 μl of BI400-B (pre-incubated in Coating buffer—0.05M Na2CO3 pH9.6; denoted CB—in cold at 16 μg/ml for each peptide 1-3 days prior to coating) or just CB (background control) is used for coating wells in microtiter plates at 4° C. overnight. The microtiter plates are then washed 3× with washing buffer (PBS+1% v/v Triton-X100; denoted WB), followed by 2 h blocking at room temperature (RT) with 200 μl/well of blocking buffer (PBS+1% w/v BSA). Plates are then washed 3× with WB, followed by 1 h incubation at 37° C. with 50-70 ul/well of added human (or rabbit) sera (serial dilutions ranging from 1:1-1:250 in dilution buffer (PBS+1% v/v Triton-X100+1% w/v BSA; denoted DB)). Plates are then washed 6× with WB, followed by 1 h incubation at RT with 70 μl/well of Alkaline Phosphatase-conjugated Protein G (3 μg/ml in DB; Calbiochem 539305). […] Plates are finally quenched by adding 100 μl/well of Quench solution (0.1M TRIS+0.1M EDTA+0.5M NaOH+0.01% w/v NaN3; pH14), followed by ELISA reader (ASYS UVM 340) at 550 nm.

BALB/c mice = assay: Serum IgG ELISA after vaccination of BALB/c mice; format: in vivo
Description: 100 μl of antigen as indicated (pre-incubated in Coating buffer—0.05M Na2CO3 pH9.6; denoted CB—in cold at 8 μg/ml 1-3 days) or just CB (background control) was used for coating wells in microtiter plates at 4° C. The microtiter plates are then washed 3× with washing buffer (PBS+1% v/v Triton-X100; denoted WB), followed by 2 h blocking at room temperature (RT) with 200 μl/well of blocking buffer (PBS+1% w/v BSA). Plates are then washed 3× with WB, followed by 1 h incubation at 37° C. with 50-70 ul/well of added human (or rabbit or sheep) sera (serial dilutions ranging from 1:5-1:250 in dilution buffer (PBS+1% v/v Triton-X100+1% w/v BSA; denoted DB)). […] Plates are finally quenched by adding 100 μl/well of Quench solution (0.1M TRIS+0.1M EDTA+0.5M NaOH+0.01% w/v NaN3; pH14), followed by a measurement with a ELISA reader (ASYS UVM 340) at 550 nm. […]

sheep = assay: Serum IgG ELISA after vaccination of sheep; format: in vivo; conditions: for Dilution of serum three times background IgG response directed against BI100-cg2 antigen: 500 μg peptide in PBS; for Immune response in vaccinated sheep (in words): by itself or with two different standard adjuvants
Description: 100 μl of antigen as indicated (pre-incubated in Coating buffer—0.05M Na2CO3 pH9.6; denoted CB—in cold at 8 μg/ml 1-3 days) or just CB (background control) was used for coating wells in microtiter plates at 4° C. The microtiter plates are then washed 3× with washing buffer (PBS+1% v/v Triton-X100; denoted WB), followed by 2 h blocking at room temperature (RT) with 200 μl/well of blocking buffer (PBS+1% w/v BSA). Plates are then washed 3× with WB, followed by 1 h incubation at 37° C. with 50-70 ul/well of added human (or rabbit or sheep) sera (serial dilutions ranging from 1:5-1:250 in dilution buffer (PBS+1% v/v Triton-X100+1% w/v BSA; denoted DB)). Plates are then washed 6× with WB, followed by 1 h incubation at RT with 70 μl/well of Alkaline Phosphatase-conjugated Protein G (3 μg/ml in DB; Calbiochem 539305) or goat anti-mouse IgG biotin (1 μg/ml, Southern Biotech, 1030-08. In case of the goat anti-mouse IgG biotin, the plates were washed one extra step as described, before addition of 100 μl Streptavidin-Alkaline-Phosphatase (1 μg/ml, Sigma Aldrich, S289) and incubated 1 hour at RT. Plates are then washed 6× with WB, followed by 10-60 min incubation at room temperature with 100 μl/well of 0.3% w/v of Phenophtalein monophosphate (Sigma P-5758). Plates are finally quenched by adding 100 μl/well of Quench solution (0.1M TRIS+0.1M EDTA+0.5M NaOH+0.01% w/v NaN3; pH14), followed by a measurement with a ELISA reader (ASYS UVM 340) at 550 nm. The strength of the sera, i.e. the magnitude of the humoral immune response, is then reported as the dilution of sera that result in the described Optical Density (OD) value, or the OD value at the indicated dilution of sera.
The vaccination of sheep was done with 500 μg of peptide in PBS with the following adjuvants: ISA51 (vaccination week 1, 2, 3, 4, serum from week 6) and Freunds Adjuvant (vaccination weeks 1, 12, 26, serum from week 28). […] This indicate that the constructs can be combined with different adjuvants and induce an IgG response, a signal that an immunological memory has been elicited in sheep.

human PBMC = assay: Influenza specific M2e response by ELISPOT assay (B cell response in stimulated PBMC); format: cell-based
[2] = Freunds Adjuvant, vaccination weeks 1, 12, 26, serum from week 28
[3] = ISA51, vaccination week 1, 2, 3, 4, serum from week 6

Substance	Dilution of serum three times background IgG response directed against BI100-cg2 antigen (sheep; [2])	Dilution of serum three times background IgG response directed against BI100-cg2 antigen (sheep; [3])	Dilution of serum three times background IgG response directed against BI100-cg2 antigen (sheep; adjuvant None)	Immune response in vaccinated sheep (in words) (sheep)	further results
GAKRRVVGGCGGAKRRVVQREKRAGEREKRA (SEQ ID NO: 121) | GKGGIEEEGGRDRDRGGEQDRDR (SEQ ID NO: 122) (thioether (positions not given here); not fully specified (bridges)) [BI400-B, peptides linked via Cys and Lys residues (thioether)]					Character of antibodies generated in animal models (in words) ([1]; animal models): comparable with antibodies elicited in natural HIV infection; Antibody response after immunization (in words) ([1]; rabbits, intradermal 500 μg in Freund's adjuvant at weeks 0, 2 & 6): elicit an efficient antibody response
RRGNWAKVLKNWAKVI (SEQ ID NO: 130) | RRGLLADARVGCGSGADRVCS (SEQ ID NO: 131) (linker (positions not given here) via sulpho‑SMCC; also: sulpho-SMCC linker between Lys and Cys, places not given here) [BI350-1mod1, lysine of first peptide linked to cysteine of second peptide by a sulpho-SMCC linker]					Immune response in vaccinated mice (in words) (BALB/c mice; IgG specific): induced a specific immune response; Serum IgG response (OD) directed against vaccine antigen, Mean (n = 6) (BALB/c mice; s.c. 100 μg peptide + Alhydrogel at weeks 1, 3, 7, serum from week 9): 0.26 OD
[RR][SL(Nle)TDIETP][GCG][IDTPIR][G][TPIBQDWG] [BI100-CG]	11000	125	25	induced an immune response	
[R][SLZTDIETP][Dpr(Aoa)][IDTPIR][G][TPIBQDWG] | [RR][IDTPIR][GG][TPI(Har)QEW][Dpr(Ser)][SLZTDIETPG] [BI150-2mod]					IgG specific B cell response in human PBMC (in words) (human PBMC; IgG): recognised by human memory cells; IgM B cell proliferation in human PBMC (in words) (human PBMC; IgM): able to induce proliferation of IgM B cells
[WWGC][TDIET][CG][IDTPIR][G][TPIBQDWG] [BI100CGcyc]	125	25	25	induced an immune response	
